In patent US9096624B2 (OSI Pharmaceuticals, LLC, priority 2009, dated 2015) one finds IC50 data, which are given here for 23 compounds.

The target of experiment [1] is T1, FAK (Homo sapiens, UniProt Q05397). The experiment can be described thus: biochemical.
For experiment [2], the target named is T1, FAK. The experiment can be described thus: Cell-based capture ELISA for inhibition of FAK autophosphorylation [pY397] in MiaPaCa2 cells. Conditions: MIA-PaCa2 cells, + 50% mouse plasma (Table 3); read-out: Mean FAK Cell Mechanistic IC50 + 50% mP MIA-PaCa2. The method, then:
Cell-Based Assays for Inhibition of FAK Autophosphorylation: MiaPaCa2 and U87MG
ELISA kit from Invitrogen (KHO0441).
Reagents Provided in Biosource FAK [pY397]
The cells were then suspended in cell assay medium.
(In general: An ELISA detects its analyte on a solid surface through an enzyme-linked reagent.)

A value given as a limit tells only on which side of the number the result lay.

T1 sequence (Q05397 whole entry): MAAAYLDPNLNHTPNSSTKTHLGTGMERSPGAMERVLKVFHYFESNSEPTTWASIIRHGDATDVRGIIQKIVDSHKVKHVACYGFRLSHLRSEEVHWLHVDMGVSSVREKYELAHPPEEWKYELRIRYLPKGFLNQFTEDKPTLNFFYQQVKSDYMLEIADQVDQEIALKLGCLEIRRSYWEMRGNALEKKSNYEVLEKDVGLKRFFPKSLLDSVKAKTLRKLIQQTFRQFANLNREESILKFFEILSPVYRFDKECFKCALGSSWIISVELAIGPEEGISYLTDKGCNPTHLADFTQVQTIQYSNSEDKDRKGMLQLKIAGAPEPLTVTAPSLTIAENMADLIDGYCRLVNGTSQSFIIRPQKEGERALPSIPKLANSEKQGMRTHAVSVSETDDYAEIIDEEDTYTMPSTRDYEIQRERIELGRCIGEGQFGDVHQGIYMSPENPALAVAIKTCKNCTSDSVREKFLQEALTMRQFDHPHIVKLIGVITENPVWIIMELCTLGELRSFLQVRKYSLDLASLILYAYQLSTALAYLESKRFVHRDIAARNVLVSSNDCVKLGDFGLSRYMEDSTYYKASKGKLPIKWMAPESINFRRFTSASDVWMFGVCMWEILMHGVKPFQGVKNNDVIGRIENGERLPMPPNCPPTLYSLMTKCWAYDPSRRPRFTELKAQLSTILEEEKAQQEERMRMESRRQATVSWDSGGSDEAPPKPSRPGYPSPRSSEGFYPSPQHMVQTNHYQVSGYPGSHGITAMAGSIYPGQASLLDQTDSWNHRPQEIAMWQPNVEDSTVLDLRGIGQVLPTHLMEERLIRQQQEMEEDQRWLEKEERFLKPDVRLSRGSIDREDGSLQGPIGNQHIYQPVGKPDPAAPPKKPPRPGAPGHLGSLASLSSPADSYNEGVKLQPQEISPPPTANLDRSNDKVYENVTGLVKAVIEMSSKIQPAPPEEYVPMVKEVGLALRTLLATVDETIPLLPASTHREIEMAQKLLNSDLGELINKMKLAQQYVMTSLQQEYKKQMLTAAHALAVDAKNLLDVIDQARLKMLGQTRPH

As a reminder, the IC50 is the concentration that gives 50% inhibition. For `CCOP(=O)(Cc1ccc(Nc2ncc(C(F)(F)F)c(Nc3ccc(-c4cnn(C[C@H](O)CO)c4)c4c3C(=O)N(C)C4)n2)cc1)OCC` [Example 101, Diethyl [4-({4-[(7-{1-[(2S)-2,3-dihydroxypropyl]-1H-pyrazol-4-yl}-2-methyl-3-oxo-2,3-dihydro-1H-isoindol-4-yl)amino]-5-(trifluoromethyl)pyrimidin-2-yl}amino)benzyl]phosphonate], the concentration for half-maximal inhibition (IC50) in experiment [1] and in experiment [2] was < 1000 nM in each case.
`CCOP(=O)(Cc1ccc(Nc2ncc(C(F)(F)F)c(Nc3ccc(F)cc3C(=O)NC)n2)c(OC)c1)OCC` [Example 102, Diethyl (4-{[4-{[4-fluoro-2-(methylcarbamoyl)phenyl]amino}-5-(trifluoromethyl)pyrimidin-2-yl]amino}-3-methoxybenzyl)phosphonate]: the concentration for half-maximal inhibition (IC50) in experiment [1] and in experiment [2] was < 1000 nM in each case.
As to `CCOP(=O)(Cc1ccc(Nc2ncc(C(F)(F)F)c(Nc3cc(F)ccc3C(=O)NC)n2)c(OC)c1)OCC` [Example 103, Diethyl (4-{[4-{[5-fluoro-2-(methylcarbamoyl)phenyl]amino}-5-(trifluoromethyl)pyrimidin-2-yl]amino}-3-methoxybenzyl)phosphonate], the concentration for half-maximal inhibition (IC50) in experiment [1] and in experiment [2] was < 1000 nM each time.
On to `CCOP(=O)(Cc1ccc(Nc2ncc(C(F)(F)F)c(Nc3ccccc3C(=O)NC)n2)c(Cl)c1)OCC` [Example 104, Diethyl (3-chloro-4-{[4-{[2-(methylcarbamoyl)phenyl]amino}-5-(trifluoromethyl)pyrimidin-2-yl]amino}benzyl)phosphonate], for which the concentration for half-maximal inhibition (IC50) in experiment [1] and in experiment [2] was < 1000 nM each time.
As for `CCOP(=O)(Cc1ccc(Nc2ncc(C(F)(F)F)c(Nc3cccc4c3C(=O)N(C)C4=O)n2)c(OC)c1)OCC` [Example 105, Diethyl [3-methoxy-4-({4-[(2-methyl-1,3-dioxo-2,3-dihydro-1H-isoindol-4-yl)amino]-5-(trifluoromethyl)pyrimidin-2-yl}amino)benzyl]phosphonate], the figures for the IC50 in experiment [1] and in experiment [2] were < 1000 nM and 1000 to 10000 nM, respectively.
The matching figures for `CCOP(=O)(Cc1ccc(Nc2ncc(C(F)(F)F)c(Nc3ccc(Br)cc3C(=O)NC)n2)c(OC)c1)OCC` [Example 107, Diethyl (4-{[4-{[4-bromo-2-(methylcarbamoyl)phenyl]amino}-5-(trifluoromethyl)pyrimidin-2-yl]amino}-3-methoxybenzyl)phosphonate]: < 1000 nM and < 1000 nM.
On to `CCOP(=O)(Cc1ccc(Nc2ncc(C(F)(F)F)c(Nc3ccc(CN4CCCC4)c4c3C(=O)N(C)C4)n2)cc1)OCC` [Example 109, Diethyl (4-{[4-{[2-methyl-3-oxo-7-(pyrrolidin-1-ylmethyl)-2,3-dihydro-1H-isoindol-4-yl]amino}-5-(trifluoromethyl)pyrimidin-2-yl]amino}benzyl)phosphonate], for which the values for the IC50 in experiment [1] and in experiment [2] were < 1000 nM and 1000 to 10000 nM, respectively.
Take `CCOP(=O)(Cc1ccc(Nc2ncc(C(F)(F)F)c(Nc3ccc(CN4CCCC4)c4c3C(=O)N(C)C4)n2)c(OC)c1)OCC` [Example 110, Diethyl (3-methoxy-4-{[4-{[2-methyl-3-oxo-7-(pyrrolidin-1-ylmethyl)-2,3-dihydro-1H-isoindol-4-yl]amino}-5-(trifluoromethyl)pyrimidin-2-yl]amino}benzyl)phosphonate]: the half-inhibitory concentration (IC50) in experiment [1] and in experiment [2] was < 1000 nM each time.
Regarding `CNC(=O)c1ccccc1Nc1nc(Nc2ccc(CP(=O)(OCCO)OCCO)cc2OC)ncc1C(F)(F)F` [Example 113, Bis(2-hydroxyethyl)(3-methoxy-4-{[4-{[2-(methylcarbamoyl)phenyl]amino}-5-(trifluoromethyl)pyrimidin-2-yl]amino}benzyl)phosphonate], the IC50 in experiment [1] and in experiment [2] was < 1000 nM in each case.
As for `CNC(=O)c1ccccc1Nc1nc(Nc2ccc(CP(=O)(OCC(F)(F)F)OCC(F)(F)F)cc2OC)ncc1C(F)(F)F` [Example 114, Bis(2,2,2-trifluoroethyl)(3-methoxy-4-{[4-{[2-(methylcarbamoyl)phenyl]amino}-5-(trifluoromethyl)pyrimidin-2-yl]amino}benzyl)phosphonate], the 50% inhibitory concentration (IC50) in experiment [1] and in experiment [2] was < 1000 nM in each case.
Take `CCOP(=O)(OCC)C(OCC(F)(F)F)c1ccc(Nc2ncc(C(F)(F)F)c(Nc3ccccc3C(=O)NC)n2)cc1` (stereo not shown) [Example 115, Diethyl [(4-{[4-{[2-(methylcarbamoyl)phenyl]amino}-5-(trifluoromethyl)pyrimidin-2-yl]amino}phenyl)(2,2,2-trifluoroethoxy)methyl]phosphonate]: the concentration for half-maximal inhibition (IC50) is < 1000 nM in experiment [1] and 1000 to 10000 nM in experiment [2].
Consider `CCOP(=O)(Cc1ccc(Nc2ncc(C(F)(F)F)c(Nc3ccc(C(=O)N4CCCC4)c4c3C(=O)N(C)C4)n2)cc1)OCC` [Example 116, Diethyl (4-{[4-{[2-methyl-3-oxo-7-(pyrrolidin-1-ylcarbonyl)-2,3-dihydro-1H-isoindol-4-yl]amino}-5-(trifluoromethyl)pyrimidin-2-yl]amino}benzyl)phosphonate], for which the results for the IC50 in experiment [1] and in experiment [2] were < 1000 nM and 1000 to 10000 nM, respectively.
The matching figures for `CCOP(=O)(Cc1ccc(Nc2ncc(C(F)(F)F)c(Nc3ccc(C(=O)N4CCCC4)c4c3C(=O)N(C)C4)n2)c(OC)c1)OCC` [Example 117, Diethyl (3-methoxy-4-{[4-{[2-methyl-3-oxo-7-(pyrrolidin-1-ylcarbonyl)-2,3-dihydro-1H-isoindol-4-yl]amino}-5-(trifluoromethyl)pyrimidin-2-yl]amino}benzyl)phosphonate]: < 1000 nM and < 1000 nM.
On to `CCOP(=O)(Cc1ccc(Nc2ncc(C(F)(F)F)c(Nc3ccc(C(=O)OC)c4c3C(=O)N(C)C4)n2)c(OC)c1)OCC` [Example 119, Methyl 7-{[2-({4-[(diethoxyphosphoryl)methyl]-2-methoxyphenyl}amino)-5-(trifluoromethyl)pyrimidin-4-yl]amino}-2-methyl-1-oxo-2,3-dihydro-1H-isoindole-4-carboxylate], for which the half-maximal inhibitory concentration (IC50) in experiment [1] and in experiment [2] was < 1000 nM throughout.
As for `COc1cc(CP(=O)(OCC(F)(F)F)OCC(F)(F)F)ccc1Nc1ncc(C(F)(F)F)c(Nc2cccc3c2C(=O)N(C)C3)n1` [Example 124, Bis(2,2,2-trifluoroethyl) [3-methoxy-4-({4-[(2-methyl-3-oxo-2,3-dihydro-1H-isoindol-4-yl)amino]-5-(trifluoromethyl)pyrimidin-2-yl}amino)benzyl]phosphonate], the 50% inhibitory concentration (IC50) in experiment [1] and in experiment [2] was < 1000 nM each time.
With `CCOP(=O)(Cc1ccc(Nc2ncc(C(F)(F)F)c(Nc3ccc(-c4cnn(C)c4)cc3C(=O)NC)n2)cc1)OCC` [Example 125, Diethyl (4-{[4-{[2-(methylcarbamoyl)-4-(1-methyl-1H-pyrazol-4-yl)phenyl]amino}-5-(trifluoromethyl)pyrimidin-2-yl]amino}benzyl)phosphonate], the IC50 in experiment [1] and in experiment [2] was < 1000 nM throughout.
As to `CCOP(=O)(Cc1ccc(Nc2ncc(C(F)(F)F)c(Nc3ccc(C(=O)O)c4c3C(=O)N(C)C4)n2)cc1)OCC` [Example 128, 7-{[2-({4-[(Diethoxyphosphoryl)methyl]phenyl}amino)-5-(trifluoromethyl)pyrimidin-4-yl]amino}-2-methyl-1-oxo-2,3-dihydro-1H-isoindole-4-carboxylic acid], the half-maximal inhibitory concentration (IC50) was < 1000 nM in experiment [1] and 1000 to 10000 nM in experiment [2].
The matching figures for `CCOP(=O)(Cc1ccc(Nc2ncc(C(F)(F)F)c(Nc3ccc(C(=O)O)c4c3C(=O)N(C)C4)n2)c(OC)c1)OCC` [Example 129, 7-{[2-({4-[(Diethoxyphosphoryl)methyl]-2-methoxyphenyl}amino)-5-(trifluoromethyl)pyrimidin-4-yl]amino}-2-methyl-1-oxo-2,3-dihydro-1H-isoindole-4-carboxylic acid]: < 1000 nM and 1000 to 10000 nM.
With `CCOP(=O)(Cc1ccc(Nc2ncc(C(F)(F)F)c(Nc3cccc4ccn(C)c(=O)c34)n2)cc1)OCC` [Example 131, Diethyl [4-({4-[(2-methyl-1-oxo-1,2-dihydroisoquinolin-8-yl)amino]-5-(trifluoromethyl)pyrimidin-2-yl}amino)benzyl]phosphonate], the IC50 in experiment [1] and in experiment [2] was < 1000 nM each time.
Regarding `CCOP(=O)(Cc1ccc(Nc2ncc(C(F)(F)F)c(Nc3cccc4c3C(=O)N(C)CC4)n2)cc1)OCC` [Example 132, Diethyl [4-({4-[(2-methyl-1-oxo-1,2,3,4-tetrahydroisoquinolin-8-yl)amino]-5-(trifluoromethyl)pyrimidin-2-yl}amino)benzyl]phosphonate], the IC50 in experiment [1] and in experiment [2] was < 1000 nM each time.
On to `CCOP(=O)(Cc1ccc(Nc2ncc(C(F)(F)F)c(Nc3ccc(-c4cnn([C@H]5CC[C@H](O)CC5)c4)cc3C(=O)NC)n2)cc1)OCC` [Example 137, Diethyl (4-{[4-({4-[1-(trans-4-hydroxycyclohexyl)-1H-pyrazol-4-yl]-2-(methylcarbamoyl)phenyl}amino)-5-(trifluoromethyl)pyrimidin-2-yl]amino}benzyl)phosphonate], for which the IC50 in experiment [1] was < 1000 nM; in experiment [2] it was 1000 to 10000 nM.
The matching figures for `CCOP(=O)(Cc1ccc(Nc2ncc(C(F)(F)F)c(Nc3ccc([C@H]4CC[C@@H](O)CC4)cc3C(=O)NC)n2)cc1)OCC` [Example 138, Diethyl (4-{[4-{[4-(cis-4-hydroxycyclohexyl)-2-(methylcarbamoyl)phenyl]amino}-5-(trifluoromethyl)pyrimidin-2-yl]amino}benzyl)phosphonate]: < 1000 nM and < 1000 nM.
The matching figures for `CCOP(=O)(Cc1ccc(Nc2ncc(C(F)(F)F)c(Nc3ccc([C@H]4CC[C@@H](O)CC4)cc3C(=O)NC)n2)c(OC)c1)OCC` [Example 140, Diethyl (4-{[4-{[4-(cis-4-hydroxycyclohexyl)-2-(methylcarbamoyl)phenyl]amino}-5-(trifluoromethyl)pyrimidin-2-yl]amino}-3-methoxybenzyl)phosphonate]: < 1000 nM and < 1000 nM.
